Laboratory results as given in ChEMBL document CHEMBL1955780, “In silico scaffold evaluation and solid phase approach to identify new gelatinase inhibitors” (Bioorg Med Chem, 2012).

How the values were obtained:
[1] = target: 72 kDa type IV collagenase (Homo sapiens, UniProt P08253); test: Inhibition of full length MMP2 using Mca-Pro-Leu-Gly-Leu-Dpa-Ala-Arg-NH2 as substrate preincubated for 1 hr prior substrate addition measured after 3 hrs by spectrofluorimetry
[2] = target: Matrix metalloproteinase-9 (Homo sapiens, UniProt P14780); test: Inhibition of MMP9 catalytic domain using Mca-Pro-Leu-Gly-Leu-Dpa-Ala-Arg-NH2 as substrate preincubated for 1 hr prior substrate addition measured after 3 hrs by spectrofluorimetry
Matrix metalloproteinase-9, sequence (P14780 whole entry, the tested form may be a part): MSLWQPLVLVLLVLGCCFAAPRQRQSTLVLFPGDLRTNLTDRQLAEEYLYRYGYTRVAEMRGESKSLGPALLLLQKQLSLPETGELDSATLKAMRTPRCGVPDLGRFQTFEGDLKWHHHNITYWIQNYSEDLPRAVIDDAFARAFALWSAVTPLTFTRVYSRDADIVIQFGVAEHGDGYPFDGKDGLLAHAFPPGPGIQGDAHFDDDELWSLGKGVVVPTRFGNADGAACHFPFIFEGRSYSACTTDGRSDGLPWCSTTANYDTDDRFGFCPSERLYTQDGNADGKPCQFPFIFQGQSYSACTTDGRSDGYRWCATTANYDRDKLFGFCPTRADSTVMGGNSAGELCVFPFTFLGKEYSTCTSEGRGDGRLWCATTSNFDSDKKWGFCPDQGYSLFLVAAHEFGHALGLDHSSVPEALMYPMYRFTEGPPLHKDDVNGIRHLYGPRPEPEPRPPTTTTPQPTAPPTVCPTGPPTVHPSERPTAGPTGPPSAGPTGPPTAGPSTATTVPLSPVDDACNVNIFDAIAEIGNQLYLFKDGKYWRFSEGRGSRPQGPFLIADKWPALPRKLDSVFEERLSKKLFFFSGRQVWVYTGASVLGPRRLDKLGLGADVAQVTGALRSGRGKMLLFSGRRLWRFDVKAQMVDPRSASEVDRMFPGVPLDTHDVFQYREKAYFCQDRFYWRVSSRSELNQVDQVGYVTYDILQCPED

Neutrophil collagenase = Neutrophil collagenase (Homo sapiens, UniProt P22894); test: Inhibition of MMP8 catalytic domain using Mca-Pro-Leu-Gly-Leu-Dpa-Ala-Arg-NH2 as substrate preincubated for 1 hr prior substrate addition measured after 3 hrs by spectrofluorimetry
Neutrophil collagenase, sequence (P22894 whole entry, the tested form may be a part): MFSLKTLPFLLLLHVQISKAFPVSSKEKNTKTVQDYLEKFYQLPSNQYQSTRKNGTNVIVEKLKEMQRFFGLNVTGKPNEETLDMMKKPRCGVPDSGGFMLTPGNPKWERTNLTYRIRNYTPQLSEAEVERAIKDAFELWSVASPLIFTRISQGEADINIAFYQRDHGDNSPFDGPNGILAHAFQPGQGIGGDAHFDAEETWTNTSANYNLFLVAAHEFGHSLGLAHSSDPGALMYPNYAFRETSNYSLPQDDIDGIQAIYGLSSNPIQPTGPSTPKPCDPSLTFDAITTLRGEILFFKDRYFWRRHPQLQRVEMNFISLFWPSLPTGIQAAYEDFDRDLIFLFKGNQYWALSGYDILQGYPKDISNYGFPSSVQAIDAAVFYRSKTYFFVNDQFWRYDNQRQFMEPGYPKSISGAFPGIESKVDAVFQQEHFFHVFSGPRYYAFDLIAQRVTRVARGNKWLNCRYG

Interstitial collagenase = target: T1, Interstitial collagenase (Homo sapiens, UniProt P03956); test: Inhibition of MMP1 catalytic domain using Mca-Pro-Leu-Gly-Leu-Dpa-Ala-Arg-NH2 as substrate preincubated for 1 hr prior substrate addition measured after 3 hrs by spectrofluorimetry
T1 sequence (P03956 whole entry): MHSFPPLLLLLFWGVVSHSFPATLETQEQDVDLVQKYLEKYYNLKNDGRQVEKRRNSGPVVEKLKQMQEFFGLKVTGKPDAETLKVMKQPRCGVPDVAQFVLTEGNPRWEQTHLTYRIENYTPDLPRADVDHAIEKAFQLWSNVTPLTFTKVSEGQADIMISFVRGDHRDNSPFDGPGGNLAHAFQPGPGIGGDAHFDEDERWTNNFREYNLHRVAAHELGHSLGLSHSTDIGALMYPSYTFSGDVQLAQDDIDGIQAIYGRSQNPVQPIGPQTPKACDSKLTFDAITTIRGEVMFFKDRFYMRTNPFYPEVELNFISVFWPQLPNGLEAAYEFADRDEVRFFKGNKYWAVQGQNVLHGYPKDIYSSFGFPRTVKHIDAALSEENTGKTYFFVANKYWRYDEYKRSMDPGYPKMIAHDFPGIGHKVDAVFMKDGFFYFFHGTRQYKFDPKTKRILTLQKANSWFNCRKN

[3] = target: Matrix metalloproteinase-14 (Homo sapiens, UniProt P50281); test: Inhibition of MMP14 catalytic domain using Mca-Pro-Leu-Gly-Leu-Dpa-Ala-Arg-NH2 as substrate preincubated for 1 hr prior substrate addition measured after 3 hrs by spectrofluorimetry
[4] = target: Macrophage metalloelastase (Homo sapiens, UniProt P39900); test: Inhibition of MMP12 catalytic domain using Mca-Pro-Leu-Gly-Leu-Dpa-Ala-Arg-NH2 as substrate preincubated for 1 hr prior substrate addition measured after 3 hrs by spectrofluorimetry
Macrophage metalloelastase, sequence (P39900 whole entry, the tested form may be a part): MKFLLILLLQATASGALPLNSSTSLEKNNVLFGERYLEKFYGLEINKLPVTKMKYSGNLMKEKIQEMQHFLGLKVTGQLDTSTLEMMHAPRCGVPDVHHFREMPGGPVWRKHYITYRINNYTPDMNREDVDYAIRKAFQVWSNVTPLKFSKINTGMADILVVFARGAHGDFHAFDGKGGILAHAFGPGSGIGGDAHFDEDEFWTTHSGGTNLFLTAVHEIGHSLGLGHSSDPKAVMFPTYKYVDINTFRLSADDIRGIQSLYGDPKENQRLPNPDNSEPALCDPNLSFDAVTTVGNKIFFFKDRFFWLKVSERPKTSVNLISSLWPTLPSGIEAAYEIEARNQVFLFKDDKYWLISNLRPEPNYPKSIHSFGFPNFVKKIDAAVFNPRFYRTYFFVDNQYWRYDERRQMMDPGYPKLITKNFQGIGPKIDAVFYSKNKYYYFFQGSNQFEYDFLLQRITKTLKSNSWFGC

Stromelysin-1 = Stromelysin-1 (Homo sapiens, UniProt P08254); test: Inhibition of MMP3 catalytic domain using Mca-Pro-Leu-Gly-Leu-Dpa-Ala-Arg-NH2 as substrate preincubated for 1 hr prior substrate addition measured after 3 hrs by spectrofluorimetry
Stromelysin-1, sequence (P08254 whole entry, the tested form may be a part): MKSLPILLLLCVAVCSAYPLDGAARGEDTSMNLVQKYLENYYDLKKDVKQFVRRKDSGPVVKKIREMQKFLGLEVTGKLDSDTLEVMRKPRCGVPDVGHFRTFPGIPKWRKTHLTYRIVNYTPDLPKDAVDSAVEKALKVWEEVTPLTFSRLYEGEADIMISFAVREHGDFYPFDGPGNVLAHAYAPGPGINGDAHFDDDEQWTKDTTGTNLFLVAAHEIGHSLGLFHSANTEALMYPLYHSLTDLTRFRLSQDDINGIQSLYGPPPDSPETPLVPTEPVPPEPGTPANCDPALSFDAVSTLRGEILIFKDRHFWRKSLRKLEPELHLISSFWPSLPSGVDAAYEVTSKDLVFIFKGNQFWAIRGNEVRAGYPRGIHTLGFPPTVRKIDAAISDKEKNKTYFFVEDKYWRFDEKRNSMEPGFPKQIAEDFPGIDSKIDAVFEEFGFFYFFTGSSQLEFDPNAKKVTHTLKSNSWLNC

72 kDa type IV collagenase, sequence (P08253 whole entry, the tested form may be a part): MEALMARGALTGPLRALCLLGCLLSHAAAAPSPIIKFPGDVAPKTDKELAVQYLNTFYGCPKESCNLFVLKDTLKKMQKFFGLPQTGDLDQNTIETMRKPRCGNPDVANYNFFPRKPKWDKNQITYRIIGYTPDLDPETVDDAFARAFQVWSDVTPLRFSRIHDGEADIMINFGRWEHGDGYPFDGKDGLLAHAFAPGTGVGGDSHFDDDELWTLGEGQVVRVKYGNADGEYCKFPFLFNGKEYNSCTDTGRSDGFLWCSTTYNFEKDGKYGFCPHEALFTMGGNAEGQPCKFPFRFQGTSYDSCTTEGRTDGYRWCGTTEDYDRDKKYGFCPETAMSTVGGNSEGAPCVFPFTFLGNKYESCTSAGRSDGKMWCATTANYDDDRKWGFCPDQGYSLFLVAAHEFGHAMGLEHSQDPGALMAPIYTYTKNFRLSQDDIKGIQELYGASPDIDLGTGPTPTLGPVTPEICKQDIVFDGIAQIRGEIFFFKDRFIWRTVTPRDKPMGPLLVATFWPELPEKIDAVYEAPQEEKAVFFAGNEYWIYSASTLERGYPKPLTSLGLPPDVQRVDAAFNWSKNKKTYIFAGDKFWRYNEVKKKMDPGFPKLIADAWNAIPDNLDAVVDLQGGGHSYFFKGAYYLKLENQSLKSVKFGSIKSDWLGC

SMILES	IC50 [1]	IC50 [2]	further results
O=C(O)[C@@H]1CCC(=O)N1Cc1ccc(-c2ccccc2)cc1	340 µM		
O=C(NO)[C@@H]1CSCN1S(=O)(=O)c1ccc(-c2ccccc2)cc1	0.2 µM	0.23 µM	
O=C(NO)[C@@H]1CCC(=O)N1S(=O)(=O)c1ccc(-c2ccccc2)cc1	1.7 µM	1.9 µM	
O=C(O)[C@@H]1CCC(=O)N1Cc1ccccc1Cl	315 µM		
O=C(NO)[C@@H]1CCC(=O)N1Cc1ccc(-c2ccccc2)cc1	9 µM	144 µM	
NC(=O)[C@@H]1CCC(=O)N1Cc1ccc(Cl)cc1	> 500 µM		
O=C(O)[C@@H]1CCC(=O)N1Cc1ccc(Cl)cc1	383 µM		
O=C(NO)[C@@H]1C[S+]([O-])CN1S(=O)(=O)c1ccc(-c2ccccc2)cc1 (some centres not stated)	0.009 µM	0.6 µM	IC50 (Neutrophil collagenase): 0.4 µM; IC50 (Interstitial collagenase): 4 µM; IC50 [3]: 0.16 µM; IC50 [4]: 2.5 µM; IC50 (Stromelysin-1): 2 µM
O=C(O)[C@H]1CCC(=O)N1Cc1ccc(Cl)cc1	> 500 µM		
NC(=O)[C@H]1CCC(=O)N1Cc1ccccc1Cl	> 500 µM		
NC(=O)[C@H]1CCC(=O)N1Cc1ccc(-c2ccccc2)cc1	> 500 µM		
O=C(NO)[C@H]1CCC(=O)N1Cc1ccc(Cl)cc1	400 µM	430 µM	
COc1ccc(Oc2ccc(S(=O)(=O)N3CSC[C@H]3C(=O)NO)cc2)cc1	0.009 µM	0.002 µM	
CCCCCc1ccc(C(=O)Nc2ccc(S(=O)(=O)N(CCN3CCOCC3)[C@@H](C(=O)NO)C(C)C)cc2)cc1	< 0.0001 µM		
O=C(NO)[C@@H]1CSCN1S(=O)(=O)c1ccc2ccccc2c1	31 µM	> 50 µM	
O=C(NO)[C@H]1CCC(=O)N1Cc1ccc(-c2ccccc2)cc1	3 µM	30 µM	
O=C(NO)[C@@H]1C[C@@H](O)CN1Cc1ccc(-c2ccccc2)cc1	> 500 µM		

SMILES	IC50 [1]	IC50 [2]	further results
O=C(NO)[C@@H]1CCCN1Cc1ccc(-c2ccccc2)cc1	> 500 µM		
O=C(NO)[C@@H]1CSCN1S(=O)(=O)c1ccc(Oc2ccc(F)cc2)cc1	0.01 µM	0.005 µM	IC50 (Interstitial collagenase): > 50 µM; IC50 (Stromelysin-1): 0.7 µM
O=C(NO)[C@@H]1CSCN1S(=O)(=O)c1ccc(Oc2ccc(Cl)cc2)cc1	0.013 µM	0.016 µM	IC50 (Interstitial collagenase): 1 µM; IC50 (Stromelysin-1): 0.16 µM
O=C(NO)[C@@H]1CS(=O)(=O)CN1S(=O)(=O)c1ccc(-c2ccccc2)cc1	0.053 µM	0.48 µM	IC50 (Neutrophil collagenase): 0.1 µM; IC50 (Interstitial collagenase): 2.5 µM; IC50 [3]: 3.8 µM; IC50 [4]: 0.5 µM; IC50 (Stromelysin-1): 4 µM
O=C(NO)[C@@H]1CCCN1S(=O)(=O)c1ccc(-c2ccccc2)cc1	4 µM	76 µM	
NC(=O)[C@H]1CCC(=O)N1Cc1ccc(Cl)cc1	> 500 µM		
O=C(NO)[C@@H]1CSCN1Cc1ccc(-c2ccccc2)cc1	330 µM		
O=C(NO)[C@@H]1CCC(=O)N1Cc1ccccc1Cl	> 500 µM		
O=C(NO)[C@@H]1CCC(=O)N1Cc1ccc(Cl)cc1	> 500 µM		
O=C(NO)[C@@H]1CSCN1S(=O)(=O)c1cccc2cccnc12	0.71 µM	0.56 µM	
O=C(NO)[C@H]1CCC(=O)N1Cc1ccccc1Cl	> 500 µM	> 500 µM	
NC(=O)[C@@H]1CCC(=O)N1Cc1ccccc1Cl	> 500 µM		
O=C(O)[C@H]1CCC(=O)N1Cc1ccc(-c2ccccc2)cc1	290 µM		
O=C(NO)[C@@H]1CS(=O)(=O)CN1S(=O)(=O)c1ccc(Oc2ccc(Cl)cc2)cc1	0.0008 µM	0.0005 µM	IC50 (Neutrophil collagenase): 0.004 µM; IC50 [3]: 0.005 µM; IC50 [4]: 0.019 µM
NC(=O)[C@@H]1CCC(=O)N1Cc1ccc(-c2ccccc2)cc1	> 500 µM		
O=C(O)[C@H]1CCC(=O)N1Cc1ccccc1Cl	> 500 µM		
O=C(NO)[C@@H]1CSC(=O)N1Cc1ccc(-c2ccccc2)cc1	6.8 µM	47 µM	
